Assays:
[1] = molecular target: GAL4 DBD (1-147)-CfEcR(DEF)/VP16AD-βRXREF-LmUSPEF (Choristoneura fumiferana, UniProt O77240); assay: cell-based; settings: for Fold Induction, 27-63 Assay, 3.3 uM: 3.3 uM ligand; for Fold Induction, 27-63 Assay, 3.3 uM / Fold Induction, 27-63 Assay, 33 uM: RLU ligand treated / RLU DMSO treated cells; for Fold Induction, 27-63 Assay, 3.3 uM / Fold Induction, 27-63 Assay, 33 uM / EC50: average of two wells; for Fold Induction, 27-63 Assay, 33 uM: 33 uM ligand; for 27-63 assay Rel Max FI: maximum fold induction at any concentration relative to that of GS-E ligand, CHO 27-63 cells; for EC50: read-out: 27-63 assay EC50, CHO 27-63 stable cell line, luciferase reporter
[2] = molecular target: GAL4 DBD-CfEcR(DEF)/VP16AD-MmRXRE (Choristoneura fumiferana, UniProt O77240); assay: 13B3 Assay (CHO stable cell line, luciferase reporter); settings: for Fold Induction, 13B3 Assay, 3.3 uM: 3.3 uM ligand; for Fold Induction, 13B3 Assay, 3.3 uM / Fold Induction, 13B3 Assay, 33 uM: RLU ligand treated / RLU DMSO treated cells; for Fold Induction, 13B3 Assay, 3.3 uM / Fold Induction, 13B3 Assay, 33 uM / EC50: average of two wells; for Fold Induction, 13B3 Assay, 33 uM: 33 uM ligand; for 13B3 assay Rel Max FI: maximum fold induction at any concentration relative to that of GS-E ligand, CHO 13B3 cells; for EC50: read-out: 13B3 EC50, CHO 13B3 stable cell line, luciferase reporter, 48 h
Method in brief: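 CHO 13B3 clone stably expressing GAL4 DBD–CfEcR(DEF) and VP16AD–MmRXR(DE) with GAL4 RE–luciferase reporter; cells plated 24 h at 37 °C, then treated with ligands (DMSO stocks diluted 300-fold), 8 concentrations 33–0.01 μM.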

| SMILES | Fold Induction, 27-63 Assay, 3.3 uM [1] | Fold Induction, 27-63 Assay, 33 uM [1] | 27-63 assay Rel Max FI [1] | EC50 [1] [nM] | Fold Induction, 13B3 Assay, 3.3 uM [2] | Fold Induction, 13B3 Assay, 33 uM [2] | 13B3 assay Rel Max FI [2] | EC50 [2] [nM] |
| --- | --- | --- | --- | --- | --- | --- | --- | --- |
| COc1ccc(C(=O)NN(C(=O)c2ccc(F)cc2Cl)C(C)(C)C)cc1 [RG-101057] | 30 | 1008 | 0.648 | 6620 | 33 | 842 | 0.569 | 4970 |
| CC(=O)c1cccc(C(=O)NN(C(=O)c2cc(C)cc(C)c2)C(C)(C)C)c1C [RG-100814] | 2441 | 2165 | 1.157 | 1500 | 423 | 1151 | 0.843 | 37900 |
| COc1cccc(C(=O)NN(C(=O)c2cc(Cl)cc(Br)c2)C(C)(C)C)c1C [RG-101408] | 2445 | 1886 | 1.185 | 336 |  | 326 |  |  |
| CC(C)(C)N(NC(=O)c1ccc2c(c1)OCO2)C(=O)c1ccc(F)cc1Cl [RG-101048] | 19 | 1453 | 0.708 | 8420 |  | 701 |  |  |
| COc1ccccc1C(=O)N(NC(=O)c1ccc2c(c1C)OCOC2)C(C)(C)C [RG-100216] | 53 | 1312 | 0.685 | 6970 |  | 8037 |  |  |
| CCc1cccc(C(=O)NN(C(=O)c2cc(C)cc(C)c2)C(C)(C)C)c1C [RG-101691] | 2249 | 2073 | 0.969 | 250 | 5245 | 630 | 0.918 | 406 |
| COc1cccc(C(=O)NN(C(=O)c2ccc(Cl)cc2F)C(C)(C)C)c1C [RG-100929] | 1080 | 988 | 0.770 | 1050 |  | 359 |  |  |
| CCc1c(C(=O)NN(C(=O)c2cccc(C)c2)C(C)(C)C)ccc2c1OCCO2 [RG-101036] | 1721 | 1459 | 0.724 | 177 | 4582 | 908 | 0.545 | 223 |
| COc1cccc(C(=O)NN(C(=O)c2cc(C)cc(Br)c2)C(C)(C)C)c1C [RG-101353] | 3583 | 3835 | 1.168 | 266 | 1347 | 718 | 1.163 | 675 |
| COc1cc(C(=O)NN(C(=O)c2cc(C)cc(C)c2)C(C)(C)C)ccc1C [RG-101585] | 154 | 1495 | 0.893 | 5060 |  | 1015 |  |  |
| COc1cc(C)ccc1C(=O)N(NC(=O)c1cccc(OC)c1C)C(C)(C)C [RG-100769] | 1595 | 1556 | 0.735 | 196 | 1014 | 386 | 0.685 | 337 |
| Cc1cc(C)cc(C(=O)N(NC(=O)c2ccc3c(c2)COCO3)C(C)(C)C)c1 [RG-101016] | 308 | 1347 | 0.703 | 4200 |  | 4693 |  |  |
| CCc1ccc(C(=O)NN(C(=O)c2cc(C)cc(C)c2)C(C)(C)C)cc1Cl [RG-101864] | 1807 | 1464 | 0.750 | 343 | 5959 | 349 | 0.460 | 288 |
| Cc1cc(C)cc(C(=O)N(NC(=O)c2ccc3c(c2Br)OCCO3)C(C)(C)C)c1 [RG-101340] | 1624 | 1549 | 0.964 | 240 | 675 | 879 | 0.364 | 106 |
| COCc1c(OC)cccc1C(=O)NN(C(=O)c1cc(C)cc(C)c1)C(C)(C)C [RG-115117] |  | 221 |  |  | 1 |  | 0 | > 50000 |
| Cc1cc(C)cc(C(=O)N(NC(=O)c2cc3c(cc2C)OCO3)C(C)(C)C)c1 [RG-101088] | 6 | 1743 | 1.159 | 9950 |  | 1400 |  |  |
| CCc1ccc(C(=O)NN(C(=O)c2cc(C)c(C)c(Cl)c2)C(C)(C)C)cc1 [RG-101863] | 1705 | 636 | 1.043 | 1000 | 3187 | 207 | 0.837 | 728 |
| Cc1cc(C)cc(C(=O)N(NC(=O)c2cc3c(cc2Cl)OCO3)C(C)(C)C)c1 [RG-101171] | 395 | 1357 | 0.877 | 4020 |  | 8453 |  |  |
| CCc1c(OC)cccc1C(=O)NN(C(=O)c1cc(OC)cc(OC)c1)C(C)(C)C [RG-100778] | 2159 | 2312 | 1.342 | 678 |  | 2344 |  |  |
| CCc1c(C(=O)NN(C(=O)c2cc(C)cc(C)c2)C(C)(C)C)ccc2c1OC(C)O2 (stereo not drawn) [RG-101659] | 2283 | 1896 | 1.009 | 347 | 1556 | 1185 | 0.867 | 562 |
| CCc1ccc(C(=O)NN(C(=O)c2ccccc2[N+](=O)[O-])C(C)(C)C)cc1 [RG-101013] | 927 | 988 | 0.606 | 2140 | 1084 | 406 | 0.539 | 2260 |
| Cc1cc(C)cc(C(=O)N(NC(=O)c2cccc(OC(F)(F)F)c2C)C(C)(C)C)c1 [RG-101692] | 1798 | 591 | 1.008 | 788 | 4180 | 170 | 1.004 | 728 |
| CC(C)(C)N(NC(=O)c1c(F)cccc1F)C(=O)c1cc(Cl)cc(Cl)c1 [RG-100801] | 1341 | 1244 | 0.936 | 2080 |  | 16 |  |  |
| COc1cccc(C(=O)NN(C(=O)c2cc(C)ccc2Cl)C(C)(C)C)c1Cl [RG-101248] | 146 | 1033 | 0.790 | 5040 |  | 415 |  |  |
| CCc1ccc(C(=O)NN(C(=O)c2cc(C)cc(C)c2)C(C)C(C)(C)C)cc1 (stereo not drawn) [RG-103451] | 3326 | 3865 | 0.884 | 314 | 576 | 661 | 0.742 | 208 |
| COc1cc(C(=O)N(NC(=O)c2cccc(OC)c2C)C(C)(C)C)ccc1C [RG-100768] | 1738 | 1852 | 1.039 | 333 |  | 709 |  |  |
| CCc1ccc(C(=O)NN(C(=O)c2ccccc2CC)C(C)(C)C)cc1 [RG-102592] | 7 | 1265 | 0.798 | 7770 | 194 | 909 | 0.684 | 4920 |
| COc1cccc(C(=O)NN(C(=O)c2cccnc2Cl)C(C)(C)C)c1C [RG-100127] | 49 | 1239 | 0.689 | 6700 |  | 365 |  |  |
| Cc1cc(C)cc(C(=O)N(NC(=O)c2ccc3c(c2)OC(C)O3)C(C)(C)C)c1 (stereo not drawn) [RG-101511] | 1421 | 1207 | 0.762 | 714 | 1912 | 744 | 0.811 | 794 |
